Source: patent US5476944A, “Derivatives of cyclic phenolic thioethers” (G. D. Searle & Co., priority 1994, dated 1995)

Legend:
5-lipoxygenase = biological target: T1, 5-lipoxygenase (Rattus norvegicus, UniProt P12527); experiment: Inhibition of 5-lipoxygenase, in vitro (5-HETE formation, RBL-1 homogenate supernatant); type: biochemical; details: RBL-1 supernatant
T1 construct: The 100,000×g supernatant fraction of Rat Basophilic Leukemia Cell Homogenate (RBL-1); endogenous in cells; host or cells: RBL-1 (rat basophilic leukemia) cells, 100,000xg supernatant of homogenate
T1 sequence (P12527 1-673): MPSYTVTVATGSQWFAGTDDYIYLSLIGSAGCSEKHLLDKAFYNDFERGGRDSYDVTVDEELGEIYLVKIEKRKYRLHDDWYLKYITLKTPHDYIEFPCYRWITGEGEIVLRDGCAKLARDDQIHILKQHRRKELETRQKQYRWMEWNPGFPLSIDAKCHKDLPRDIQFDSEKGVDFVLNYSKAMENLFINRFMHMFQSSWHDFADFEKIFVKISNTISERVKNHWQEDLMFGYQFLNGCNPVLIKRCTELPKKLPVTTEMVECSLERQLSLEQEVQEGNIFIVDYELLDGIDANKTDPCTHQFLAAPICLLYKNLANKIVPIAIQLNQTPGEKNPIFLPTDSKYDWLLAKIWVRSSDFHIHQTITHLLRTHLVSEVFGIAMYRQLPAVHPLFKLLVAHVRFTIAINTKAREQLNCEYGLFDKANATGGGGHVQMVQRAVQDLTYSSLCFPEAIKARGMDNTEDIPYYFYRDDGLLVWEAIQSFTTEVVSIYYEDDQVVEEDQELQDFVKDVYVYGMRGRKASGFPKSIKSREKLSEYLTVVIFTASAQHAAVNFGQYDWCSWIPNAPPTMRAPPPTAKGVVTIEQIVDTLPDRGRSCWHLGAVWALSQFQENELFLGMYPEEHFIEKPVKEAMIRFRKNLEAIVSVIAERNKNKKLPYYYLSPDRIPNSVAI
Procedure: The compounds of the invention are evaluated with respect to 5-lipoxygenaseinhibition according to the following assay procedure.
Inhibition of 5-lipoxygenase, in vitro:
The 100,000×g supernatant fraction of Rat Basophilic Leukemia Cell Homogenate (RBL-1) serves as a 5-lipoxygenase enzyme source. The enzyme is incubated with [1-^4 C)-arachidonic acid and Ca++ in the presence and absence of test compound. The product of 5-lipoxygenase, 5-hydroxyeicosatetraenoic acid (5-HETE), is separated by thin-layer chromatography and measured by radioactivity. A compound inhibiting 5-HETE synthesis by 30% or more is considered active at that concentration.
For comparison the compound of Formula XX, a known 5-lipoxygenase inhibitor described in U.S. Pat. No. 4,755,524 was used: [drawing 29] (±)[2S*-[[3,5-bis(1,1-dimethylethyl)-4-hydroxyphenyl]thio]-1R*-methylpro poxy]acetic acid.

COX-I = biological target: T2, COX-I (Homo sapiens, UniProt P23219); experiment: Human Enzyme Assay, recombinant COX-I (PGE2 ELISA); type: biochemical
T2 construct: made in house; host or cells: SF9 insect cells, recombinant baculovirus (pVL1393); coding fragment from Cayman Chemical
T2 sequence (P23219 24-599): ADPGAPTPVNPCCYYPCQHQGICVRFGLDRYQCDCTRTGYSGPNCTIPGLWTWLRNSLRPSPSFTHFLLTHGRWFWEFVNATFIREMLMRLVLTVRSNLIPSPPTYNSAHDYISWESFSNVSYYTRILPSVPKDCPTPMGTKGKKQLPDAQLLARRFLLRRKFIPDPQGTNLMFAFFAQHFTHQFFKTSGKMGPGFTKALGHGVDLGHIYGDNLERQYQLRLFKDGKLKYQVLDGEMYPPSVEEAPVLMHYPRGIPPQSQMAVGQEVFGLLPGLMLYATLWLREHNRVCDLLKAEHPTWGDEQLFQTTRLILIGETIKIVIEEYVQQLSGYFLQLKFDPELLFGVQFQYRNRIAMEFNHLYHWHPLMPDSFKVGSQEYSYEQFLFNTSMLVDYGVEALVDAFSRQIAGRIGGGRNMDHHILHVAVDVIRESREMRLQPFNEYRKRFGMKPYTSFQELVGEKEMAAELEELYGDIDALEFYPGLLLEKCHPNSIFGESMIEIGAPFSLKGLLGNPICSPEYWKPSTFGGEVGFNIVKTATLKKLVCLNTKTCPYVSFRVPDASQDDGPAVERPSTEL
Procedure: The compounds of the invention are evaluated with respect to COX-I and COX-II activity in vitro using an enzyme based assay according to the following assay procedure.
(a) Preparation of Recombinant COX Baculoviruses
A 2.0 kb fragment containing the coding region for either human or murine COX-I (Caymen Chemical, Ann Arbor, Mich.), or human or murine COX-II (Caymen Chemical, Ann Arbor, Mich.), was cloned into a BamH1 site of the baculovirus transfer vector pVL1393 (Invitrogen, Palo Alto, Calif.) to generate a baculovirus transfer vector. Recombinant baculoviruses were isolated by transfecting 4 μg of baculovirus transfer vector DNA into SF9 cells (2×10e8) (Invitrogen, Palo Alto, Calif.) along with 200 ng of linearized bacium by the phosphate method. See M. D. Summers et al., "A Manual of Methods for Baculovirus Vectors and Insect Cell Culture Procedure," TEXAS AGRICULTURE EXPERIMENTAL STATION BULLETIN, No. 1555 (1987), which is incorporated herein by reference. Recombinant viruses were purified by three rounds of plaque purification, and high titer (10e7-10e8 pfu/ml) stocks of virus were prepared. For large scale production, SF9 insect cells (Invitrogen, Palo Alto, Calif.) were infected in 10 liter fermentors (0.5×10^6 /ml) with the recombinant baculovirus stock, such that the multiplicity of infection was 0.1. After 72 hours, the cells were centrifuged and the cell pellet was homogenized in Tris/Sucrose (50 mM: 25%, pH 8.0) containing 1% CHAPS. The homogenate was centrifuged at 10,000×G for 30 minutes, and the resultant supernatant was stored at -80° C. before being assayed for COX activity.
b. Assay for COX-I and COX-II activity:
COX activity was assayed as PGE2 formed/μg protein/time using an ELISA (Caymen Chemical, Ann Arbor, Mich.) to detect the prostaglandin E2 released. CHAPS-solubilized insect cell membranes containing the appropriate COX enzyme were incubated in a potassium phosphate buffer (50 mM, pH 8.0) containing phenol (0.5 mM), and heme (1 μM) with the addition of arachidonic acid (10 μM). Compounds of the present invention were pre-incubated with the enzyme for 10-20 minutes prior to the addition of the COX-I and COX-II enzyme substrate arachidonic acid (10 μM). Any reaction between the arachidonic acid and the enzyme was stopped after ten minutes at 37° C./room temperature by transferring 40 μl of reaction mix into […] ELISA buffer and 25 μM indomethacin. The PGE2 formed was measured by standard ELISA technology (Cayman Chemical, Ann Arbor, Mich.).
The results for this assay, as well as for the next assay (COX-II Cell Fibroblast Assay) are expressed in terms of COX-I or II activity as an IC50 value (50% inhibitory concentration), as defined as the amount of prostaglandin E2 (PGE2) formed per protein per time in response to the enzyme substrate arachidonic acid.

IC50 (5-lipoxygenase): > 100 µM
IC50 (COX-I): > 100 µM
Structure (SMILES): CC(C)(C)c1cc(S[C@H]2CCCC[C@H]2OCC(=O)O)cc(C(C)(C)C)c1 (racemic) [Example 72, (±)cis-2-[[2-[[3,5-bis(1,1-dimethylethyl)phenyl]thio]cyclohexyl]oxy]acetic acid]
